Molecular target: human TRPA1 (Homo sapiens (Human), UniProt O75762)
Test: In vitro inhibition of human TRPA1, whole cell patch configuration
Type: cell-based
Settings: current activation 10 μM AITC, tested concentrations 320 pM to 3.2 μM, read-out: hTRPA1 IC50
Procedure: All currents were recorded in whole-cell configuration using EPC-9 and EPC-10 amplifiers and Patchmaster software (HEKA) or similar. […] The standard bath solution contained 150 mM NaCl, 10 mM HEPES, 10 mM glucose, 4.5 mM KCl, 1 mM EGTA, 3 mM MgCl2, with pH adjusted to 7.4 with NaOH. In some instances, 2 mM CaCl2 was added in place of EGTA and the concentration of MgCl2 was reduced to 1 mM.
Data were collected either by continuous recordings at −60 mV or by applying voltage ramps from a holding potential of −40 mV every 4 s. Continuous recordings were collected at 400 Hz and digitally filtered off-line at 10 Hz for presentation. Voltage ramps were applied from −100 mV or −80 mV to +100 mV or +80 mV over the course of 400 ms, and data were collected at 10 kHz and filtered at 2.9 kHz. Inward and outward currents were analyzed from the ramps at −80 and 80 mV, respectively. Liquid junction potential correction was not used.
Solutions were switched using a gravity-fed continuous focal perfusion system. To achieve rapid temperature changes, two temperature control, and perfusion systems were employed simultaneously. […] Temperatures were confirmed using a thermistor (Warner Instruments, TA-29), with temperatures at the recorded cell estimated to be within +/−2° C. of those reported.
The antagonist effects of compounds of Formula (I) against human TRPA1 (“hTRPA1”) in a whole cell patch configuration were evaluated using the in vitro assay described above.

human TRPA1, sequence (O75762 whole entry): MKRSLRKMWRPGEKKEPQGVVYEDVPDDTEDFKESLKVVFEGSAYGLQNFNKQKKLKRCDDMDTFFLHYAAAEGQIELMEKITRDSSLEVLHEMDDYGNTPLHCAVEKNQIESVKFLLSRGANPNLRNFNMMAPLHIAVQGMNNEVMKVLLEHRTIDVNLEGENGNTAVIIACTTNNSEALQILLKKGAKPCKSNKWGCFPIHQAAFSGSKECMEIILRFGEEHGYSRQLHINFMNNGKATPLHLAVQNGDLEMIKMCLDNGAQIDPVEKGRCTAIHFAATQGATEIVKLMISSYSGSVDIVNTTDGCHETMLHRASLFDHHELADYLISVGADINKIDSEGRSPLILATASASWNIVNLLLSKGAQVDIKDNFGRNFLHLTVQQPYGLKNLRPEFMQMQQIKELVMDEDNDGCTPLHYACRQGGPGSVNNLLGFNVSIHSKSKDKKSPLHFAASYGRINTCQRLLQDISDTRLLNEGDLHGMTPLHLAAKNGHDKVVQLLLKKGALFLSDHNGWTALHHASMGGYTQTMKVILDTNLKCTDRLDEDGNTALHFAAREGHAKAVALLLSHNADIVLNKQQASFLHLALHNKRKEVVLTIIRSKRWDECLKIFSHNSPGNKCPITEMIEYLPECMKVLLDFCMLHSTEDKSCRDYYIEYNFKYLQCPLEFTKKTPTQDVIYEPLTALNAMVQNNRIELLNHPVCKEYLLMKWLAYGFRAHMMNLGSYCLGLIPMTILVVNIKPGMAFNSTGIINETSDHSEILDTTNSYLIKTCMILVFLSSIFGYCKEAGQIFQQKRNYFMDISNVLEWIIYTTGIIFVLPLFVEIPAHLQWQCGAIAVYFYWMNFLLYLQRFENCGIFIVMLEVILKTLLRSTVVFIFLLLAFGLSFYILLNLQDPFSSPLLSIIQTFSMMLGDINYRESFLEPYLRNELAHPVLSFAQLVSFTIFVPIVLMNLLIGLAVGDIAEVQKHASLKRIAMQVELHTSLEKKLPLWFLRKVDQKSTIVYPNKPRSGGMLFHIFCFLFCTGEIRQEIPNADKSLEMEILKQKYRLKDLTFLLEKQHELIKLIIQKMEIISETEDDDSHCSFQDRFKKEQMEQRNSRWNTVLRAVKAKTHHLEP

Cc1cc(Cn2c(=O)c3c(ncn3CC(=O)Nc3csc(-c4cnc(C(F)(F)F)c(C)c4)n3)n(C)c2=O)no1 [Compound 217, 2-(3-methyl-1-((5-methylisoxazol-3-yl)methyl)-2,6-dioxo-2,3-dihydro-1H-purin-7(6H)-yl)-N-(2-(5-methyl-6-(trifluoromethyl)pyridin-3-yl)thiazol-4-yl)acetamide]
IC50: 3 nM

CCC(=O)Cn1c(=O)c2c(ncn2[C@@H](C)C(=O)Nc2cccc(-c3cnc(N4CC5C(C4)C5(F)F)cn3)n2)n(C)c1=O (stereo partly drawn) [Compound 256, (2S)—N-(6-(5-(6,6-difluoro-3-azabicyclo[3.1.0]hexan-3-yl)pyrazin-2-yl)pyridin-2-yl)-2-(3-methyl-2,6-dioxo-1-(2-oxobutyl)-2,3-dihydro-1H-purin-7(6H)-yl)propanamide]
IC50: 5 nM

CC(=O)Cn1c(=O)c2c(ncn2CC(=O)Nc2cncc(-c3cnc(C(F)(F)F)c(C)c3)n2)n(C)c1=O [Compound 232, 2-(3-methyl-2,6-dioxo-1-(2-oxopropyl)-2,3-dihydro-1H-purin-7(6H)-yl)-N-(6-(5-methyl-6-(trifluoromethyl)pyridin-3-yl)pyrazin-2-yl)acetamide]
IC50: 56 nM

CCC(=O)Cn1c(=O)c2c(ncn2[C@@H](C)C(=O)Nc2cccc(-c3cnc(N4CC5CC5C4)nc3)n2)n(C)c1=O (stereo partly drawn) [Compound 147, (2S)—N-(6-(2-(3-azabicyclo[3.1.0]hexan-3-yl)pyrimidin-5-yl)pyridin-2-yl)-2-(3-methyl-2,6-dioxo-1-(2-oxobutyl)-2,3-dihydro-1H-purin-7(6H)-yl)propanamide]
IC50: 6 nM

Cc1cc(-c2cncc(NC(=O)[C@H](C)n3cnc4c3c(=O)n(Cc3ccon3)c(=O)n4C)n2)cnc1C(F)(F)F [Compound 137, (S)-2-(1-(isoxazol-3-ylmethyl)-3-methyl-2,6-dioxo-2,3-dihydro-1H-purin-7(6H)-yl)-N-(6-(5-methyl-6-(trifluoromethyl)pyridin-3-yl)pyrazin-2-yl)propanamide]
IC50: 13 nM

CCC(=O)Cn1c(=O)c2c(ncn2[C@@H](C)C(=O)Nc2csc(-c3cnc(C)c(C(F)(F)F)c3)n2)n(C)c1=O [Compound 99, (S)-2-(3-methyl-2,6-dioxo-1-(2-oxobutyl)-2,3-dihydro-1H-purin-7(6H)-yl)-N-(2-(6-methyl-5-(trifluoromethyl)pyridin-3-yl)thiazol-4-yl)propanamide]
IC50: 1 nM

CCC(=O)Cn1c(=O)c2c(ncn2CC(=O)Nc2cccc(-c3cnc(C)c(C(F)(F)F)c3)n2)n(C)c1=O [Compound 235, 2-(3-methyl-2,6-dioxo-1-(2-oxobutyl)-2,3-dihydro-1H-purin-7(6H)-yl)-N-(6′-methyl-5′-(trifluoromethyl)-[2,3′-bipyridin]-6-yl)acetamide]
IC50: 2 nM

Cn1c(=O)n(Cc2ccccn2)c(=O)c2c1ncn2CC(=O)Nc1cccc(-c2ccc(Cl)cc2)n1 [Compound 188, N-(6-(4-chlorophenyl)pyridin-2-yl)-2-(3-methyl-2,6-dioxo-1-(pyridin-2-ylmethyl)-2,3-dihydro-1H-purin-7(6H)-yl)acetamide]
IC50: 33 nM

CC(=O)Cn1c(=O)c2c(ncn2[C@@H](C)C(=O)Nc2csc(-c3ccc(N4CC5CC5C4)nc3)n2)n(C)c1=O (stereo partly drawn) [Compound 63, (2S)—N-(2-(6-(3-azabicyclo[3.1.0]hexan-3-yl)pyridin-3-yl)thiazol-4-yl)-2-(3-methyl-2,6-dioxo-1-(2-oxopropyl)-2,3-dihydro-1H-purin-7(6H)-yl)propanamide]
IC50: 2 nM

CC(=O)Cn1c(=O)c2c(ncn2[C@@H](C)C(=O)Nc2ccnc(-c3cnc(C)c(C(F)(F)F)c3)n2)n(C)c1=O [Compound 111]
IC50: 3 nM

CC#CCn1c(=O)c2c(ncn2[C@@H](C)C(=O)Nc2cncc(-c3cnc(N4CC5CC5C4)nc3)n2)n(C)c1=O (stereo partly drawn) [Compound 261]
IC50: 5 nM

CCC(=O)Cn1c(=O)c2c(ncn2[C@@H](C)C(=O)Nc2cccc(-c3ccc(N4CC5C(C4)C5(F)F)nc3)n2)n(C)c1=O (stereo partly drawn) [Compound 68, (2S)—N-(6′-(6,6-difluoro-3-azabicyclo[3.1.0]hexan-3-yl)-[2,3′-bipyridin]-6-yl)-2-(3-methyl-2,6-dioxo-1-(2-oxobutyl)-2,3-dihydro-1H-purin-7(6H)-yl)propanamide]
IC50: 5 nM

Cc1cc(Cn2c(=O)c3c(ncn3[C@@H](C)C(=O)Nc3cncc(-c4cnc(C)c(Cl)c4)n3)n(C)c2=O)no1 [Compound 139, (S)—N-(6-(5-chloro-6-methylpyridin-3-yl)pyrazin-2-yl)-2-(3-methyl-1-((5-methylisoxazol-3-yl)methyl)-2,6-dioxo-2,3-dihydro-1H-purin-7(6H)-yl)propanamide]
IC50: 11 nM

CC(C(=O)Nc1cccc(-c2cnc(C(F)(F)F)nc2)n1)n1cnc2c1c(=O)n(CC#N)c(=O)n2C (stereo not drawn) [Compound 10, 2-(1-(cyanomethyl)-3-methyl-2,6-dioxo-2,3-dihydro-1H-purin-7(6H)-yl)-N-(6-(2-(trifluoromethyl)pyrimidin-5-yl)pyridin-2-yl)propanamide]
IC50: 24 nM

C[C@@H](C(=O)Nc1cccc(-c2cnc(N3CCC[C@@H]3C(F)(F)F)nc2)n1)n1cnc2c1c(=O)n(CC#N)c(=O)n2C [Compound 39, (S)-2-(1-(cyanomethyl)-3-methyl-2,6-dioxo-2,3-dihydro-1H-purin-7(6H)-yl)-N-(6-(2-((R)-2-(trifluoromethyl)pyrrolidin-1-yl)pyrimidin-5-yl)pyridin-2-yl)propanamide]
IC50: 3 nM

C[C@@H](C(=O)Nc1cncc(-c2ccc(N3CC4CC4C3)nc2)n1)n1cnc2c1c(=O)n(CC#N)c(=O)n2C (stereo partly drawn) [Compound 43, (2S)—N-(6-(6-(3-azabicyclo[3.1.0]hexan-3-yl)pyridin-3-yl)pyrazin-2-yl)-2-(1-(cyanomethyl)-3-methyl-2,6-dioxo-2,3-dihydro-1H-purin-7(6H)-yl)propanamide]
IC50: 8 nM

Cc1nc(Cn2c(=O)c3c(ncn3CC(=O)Nc3cccc(-c4cnc(C)c(C(F)(F)F)c4)n3)n(C)c2=O)no1 [Compound 240]
IC50: 7 nM

Cc1noc(Cn2c(=O)c3c(ncn3[C@@H](C)C(=O)Nc3ccnc(-c4cnc(C(F)(F)F)c(C)c4)n3)n(C)c2=O)n1 [Compound 150, (S)-2-(3-methyl-1-((3-methyl-1,2,4-oxadiazol-5-yl)methyl)-2,6-dioxo-2,3-dihydro-1H-purin-7(6H)-yl)-N-(2-(5-methyl-6-(trifluoromethyl)pyridin-3-yl)pyrimidin-4-yl)propanamide]
IC50: 4 nM

C[C@@H](C(=O)Nc1cncc(-c2cnc(N3CCC[C@@H]3C(F)(F)F)nc2)n1)n1cnc2c1c(=O)n(CC#N)c(=O)n2C [Compound 40, (S)-2-(1-(cyanomethyl)-3-methyl-2,6-dioxo-2,3-dihydro-1H-purin-7(6H)-yl)-N-(6-(2-((R)-2-(trifluoromethyl)pyrrolidin-1-yl)pyrimidin-5-yl)pyrazin-2-yl)propanamide]
IC50: 8 nM

CC(=O)Cn1c(=O)c2c(nc(C)n2CC(=O)Nc2cccc(-c3ccc(F)c(F)c3)n2)n(C)c1=O [Compound 193, N-(6-(3,4-difluorophenyl)pyridin-2-yl)-2-(3,8-dimethyl-2,6-dioxo-1-(2-oxopropyl)-1,2,3,6-tetrahydropurin-7-yl)acetamide]
IC50: 45 nM

CCC(=O)Cn1c(=O)c2c(ncn2[C@@H](C)C(=O)Nc2csc(-c3cnc(C)c(F)c3)n2)n(C)c1=O [Compound 101, (S)—N-(2-(5-fluoro-6-methylpyridin-3-yl)thiazol-4-yl)-2-(3-methyl-2,6-dioxo-1-(2-oxobutyl)-2,3-dihydro-1H-purin-7(6H)-yl)propanamide]
IC50: 12 nM
